Laboratory results: patent US5567831A, “Non-steroidal sulfatase inhibitor compounds and their method of use” (Duguesne University of the Holy Ghost, priority 1995, dated 1996)

Experiments:
[1] = target: T1, estrone sulfatase activity in intact MDA-MB-231 breast cancer cells (Homo sapiens, UniProt P08842); assay: In vitro estrogen sulfatase assay on intact cell monolayers; type: cell-based; conditions: intact MDA-MB-231 monolayers, 18 hours at 37° C., [3H]E1S (2 nM), inhibitor 0.1 nM to 1 μM; read-out: apparent I.C. 50, concentration of the inhibitor to inhibit 50% of the sulfatase activity in the MDA-MB-231 cells
T1 construct: host or cells: MDA-MB-231
T1 sequence (P08842 22-583): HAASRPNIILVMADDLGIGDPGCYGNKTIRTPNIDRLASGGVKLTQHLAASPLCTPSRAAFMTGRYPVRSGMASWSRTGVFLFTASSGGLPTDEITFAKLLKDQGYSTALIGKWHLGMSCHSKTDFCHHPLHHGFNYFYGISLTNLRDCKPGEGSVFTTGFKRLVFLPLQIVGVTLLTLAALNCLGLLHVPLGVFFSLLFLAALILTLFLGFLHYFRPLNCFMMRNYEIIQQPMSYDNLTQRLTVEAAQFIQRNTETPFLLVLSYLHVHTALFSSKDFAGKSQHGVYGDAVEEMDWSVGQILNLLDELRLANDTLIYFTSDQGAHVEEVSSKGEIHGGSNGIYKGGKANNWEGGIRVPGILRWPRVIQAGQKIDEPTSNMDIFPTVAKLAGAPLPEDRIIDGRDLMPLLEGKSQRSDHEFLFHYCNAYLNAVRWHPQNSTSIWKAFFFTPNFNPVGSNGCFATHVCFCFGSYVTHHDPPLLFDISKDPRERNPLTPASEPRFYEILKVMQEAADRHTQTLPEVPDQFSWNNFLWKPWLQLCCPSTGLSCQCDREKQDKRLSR
Method: The in vitro sulfatase assay on intact cells involved a modification of the procedure of Duncan et al. ["Inhibition of estrone sulfatase activity by estrone 3-methylthiophosphonate", Cancer Res., Vol. 53, pp. 298-303 (1993)]. Intact nearly confluent monolayers of MDA-MB-231 (American Type Culture Collection) breast cancer cells in 6-well tissue-culture plates were washed with Hank's balanced salt solution (HBSS) and incubated for 18 hours at 37° C. with [^3 H]E1 S (5 pmol, 7×10^5 dpm) in serum-free Minimal Essential Medium (MEM) (2.5 ml) with or without test compounds (0.01 nM to 10 μM). After incubation, each dish was cooled and aliquots of the medium (0.5 ml) were pipetted into separate tubes containing 3 ml toluene. The mixture was shaken vigorously for 30 seconds and then centrifuged for 3 minutes at 2500 x g. Previous experiments have shown that >90% of estrone (E1) and <0.1% of […] (E1 S) is removed from the aqueous phase by this treatment. […] Radioactivity was determined using a Packard TriCarb scintillation counter with 50% efficiency for ^3 H. Each batch of experiments included dishes without cells (to assess apparent non-enzymatic hydrolysis of the substrate). […] Estrone sulfatase activity was determined from the amount of ^3 H-E1 tritiated estrone and ^3 H-E2 triated estradiol formed. […]

[2] = rat, in vivo

| IC50 [1] | SMILES | estrogenicity in uterine weight gain assay [2] |
| --- | --- | --- |
| 1 to 2 nM | CCCCCCCCCCCC(=O)NCCc1ccc(OS(N)(=O)=O)cc1 [N-lauroyl-(p-o-sulfamoyl) tyramine (C12), N-lauroyl-(p-o-sulfamoyl) tyramine] | – |
| – | C[C@]12CC[C@@H]3c4ccc(OS(N)(=O)=O)cc4CC[C@H]3[C@@H]1CCC2=O [estrone 3-0 sulfamate] | estrogenic |
